Consider 19 compounds from paper PMC12150293 (RSC Advances, 2025).

Test [1] deals with MDA-MB-231 cells. As to the kind of experiment: MTT cytotoxicity assay on breast cancer cells. As to conditions: read-out: MDA-MB-231 IC50. A general note: Formazan colour is commonly taken as a measure of viable cells.
Test [2] has as its system A549 cells. As to the kind of experiment: MTT cytotoxicity assay on non-small cell lung cancer cells. As to conditions: read-out: A549 IC50.
The subject of test [3] is BEAS-2B cells. In words: MTT cytotoxicity assay on normal human lung epithelial cells. To be noted: 48 h, read-out: BEAS-2B IC50.

Where two headings read alike, the source gives them in different places.

Turning to `Cc1ccc(N(C(=O)c2ccccc2Cl)C(C(=O)Nc2ccc([N+](=O)[O-])cc2)c2ccc(C(F)(F)F)cc2)cc1` (centres unmarked) [Compound 6, 2-Chloro-N-(2-((4-nitrophenyl)amino)-2-oxo-1-(4-(trifluoromethyl)phenyl)-ethyl)-N-(p-tolyl)benzamide], the IC50 (usually the concentration at which inhibition is half-maximal) in test [1] (Homo sapiens, MDA-MB-231, 48 h) is 54.2 ± 4.7 µM; in test [2] (Homo sapiens, A549, 48 h), 39.9 ± 2.7 µM; in test [3] it was 50.1 ± 3.6 µM.
`O=C(Nc1ccc([N+](=O)[O-])cc1)C(c1ccc(C(F)(F)F)cc1)N(Cc1ccccc1)C(=O)CNS(=O)(=O)c1ccccc1` (centres unmarked) [Compound 17, N-Benzyl-N-(2-((4-nitrophenyl)amino)-2-oxo-1-(4-(trifluoromethyl)phenyl)ethyl)-2-(phenylsulfonamido)acetamide]: the IC50 came out at 57 ± 4.8 µM in test [1] (Homo sapiens, MDA-MB-231, 48 h); 40.8 ± 2.8 µM in test [2] (Homo sapiens, A549, 48 h); 50.2 ± 3.4 µM in test [3].
For `O=C(Nc1ccc([N+](=O)[O-])cc1)C(c1ccc(C(F)(F)F)cc1)N(C(=O)c1ccccc1I)c1ccccc1` (centres unmarked) [Compound 7, 2-Iodo-N-(2-((4-nitrophenyl)amino)-2-oxo-1-(4-(trifluoromethyl)phenyl)ethyl)-N-phenyl-benzamide], the IC50 came to 28.2 ± 1.4 µM in test [1] (Homo sapiens, MDA-MB-231, 48 h); 20.6 ± 1.5 µM in test [2] (Homo sapiens, A549, 48 h); 75.6 ± 5.8 µM in test [3].
`O=C(NCC(=O)N(c1ccccc1)C(C(=O)Nc1ccc([N+](=O)[O-])cc1)c1ccc(C(F)(F)F)cc1)c1ccccc1` (centres unmarked) [Compound 11, N-(2-((2-((4-Nitrophenyl)amino)-2-oxo-1-(4-(trifluoromethyl)phenyl)ethyl)(phenyl)amino)-2-oxoethyl)benzamide]: the IC50 was determined as 60.2 ± 4.9 µM in test [1] (Homo sapiens, MDA-MB-231, 48 h); 53.9 ± 4.4 µM in test [2] (Homo sapiens, A549, 48 h); 82.1 ± 7.3 µM in test [3].
Consider `N.N.[Cl][Pt][Cl]` [Cisplatin, cisplatin, reference compound], for which the IC50 in test [1] (MTT assay, 48 h, mean ± SEM) came out at 12.2 ± 0.8 µM; in test [2] (MTT assay, 48 h, mean ± SEM), 10.1 ± 0.7 µM.
On to `Cc1ccc(N(C(=O)c2ccc3ccccc3n2)C(C(=O)Nc2ccc([N+](=O)[O-])cc2)c2ccc(C(F)(F)F)cc2)cc1` (centres unmarked) [Compound 19, N-(2-((4-Nitrophenyl)amino)-2-oxo-1-(4-(trifluoromethyl)phenyl)ethyl)-N-(p-tolyl)-quinoline-2-carboxamide], for which the IC50 in test [1] (Homo sapiens, MDA-MB-231, 48 h) was found to be 73.1 ± 5.7 µM; in test [2] (Homo sapiens, A549, 48 h), 46.2 ± 4.1 µM; in test [3], 50.1 ± 3.3 µM.
`Cc1ccc(N(C(=O)Cc2ccccc2)C(C(=O)Nc2ccc([N+](=O)[O-])cc2)c2ccc(C(F)(F)F)cc2)cc1` (centres unmarked) [Compound 10, N-(4-Nitrophenyl)-2-(2-phenyl-N-(p-tolyl)acetamido)-2-(4-(trifluoromethyl)phenyl)-acetamide]: the IC50 was 84.4 ± 6.9 µM in test [1] (Homo sapiens, MDA-MB-231, 48 h); 71.5 ± 6.8 µM in test [2] (Homo sapiens, A549, 48 h); 83.3 ± 6.8 µM in test [3].
Turning to `O=C(NCC(=O)N(Cc1ccccc1)C(C(=O)Nc1ccc([N+](=O)[O-])cc1)c1ccc(C(F)(F)F)cc1)c1ccccc1` (centres unmarked) [Compound 16, N-(2-(Benzyl(2-((4-nitrophenyl)amino)-2-oxo-1-(4-(trifluoromethyl)phenyl)ethyl)amino)-2-oxoethyl)benzamide], the IC50 in test [1] (Homo sapiens, MDA-MB-231, 48 h) was 27.3 ± 1.5 µM; in test [2] (Homo sapiens, A549, 48 h), 22.4 ± 0.8 µM; in test [3], 63.8 ± 4.8 µM.
Take `O=C(Nc1ccc([N+](=O)[O-])cc1)C(c1ccc(C(F)(F)F)cc1)N(Cc1ccccc1)C(=O)Cc1ccccc1` (centres unmarked) [Compound 15, N-Benzyl-N-(2-((4-nitrophenyl)amino)-2-oxo-1-(4-(trifluoromethyl)phenyl)-ethyl)-2-phenyl-acetamide]: the half-inhibitory concentration (IC50) in test [1] (Homo sapiens, MDA-MB-231, 48 h) turned out to be 65.7 ± 5.4 µM; in test [2] (Homo sapiens, A549, 48 h), 61.1 ± 4.5 µM; in test [3], 69.4 ± 4.7 µM.
For the compound `O=C(Nc1ccc([N+](=O)[O-])cc1)C(c1ccc(C(F)(F)F)cc1)N(C(=O)Cc1ccccc1)c1ccccc1` (centres unmarked) [Compound 9, 2-(N,2-Diphenylacetamido)-N-(4-nitrophenyl)-2-(4-(trifluoromethyl)phenyl)acetamide], the IC50 in test [1] (Homo sapiens, MDA-MB-231, 48 h) was determined as 70.6 ± 6.1 µM; in test [2] (Homo sapiens, A549, 48 h) it was 46.4 ± 2.8 µM; in test [3] it was 71.6 ± 5.7 µM.
For `Cc1ccc(N(C(=O)/C=C/c2ccc(C(F)(F)F)cc2)C(C(=O)Nc2ccc([N+](=O)[O-])cc2)c2ccccc2)cc1` (centres unmarked) [Compound 24, (E)-N-(2-((4-Nitrophenyl)amino)-2-oxo-1-phenylethyl)-N-(p-tolyl)-3-(4-(trifluoromethyl)-phenyl)acrylamide], in that order: 22.1 ± 1.6 µM, 20.4 ± 1.7 µM and 54.2 ± 4.1 µM.
Consider `Cc1ccc(N(C(=O)CNS(=O)(=O)c2ccccc2)C(C(=O)Nc2ccc([N+](=O)[O-])cc2)c2ccc(C(F)(F)F)cc2)cc1` (centres unmarked) [Compound 14, N-(4-Nitrophenyl)-2-(2-(phenylsulfonamido)-N-(p-tolyl)acetamido)-2-(4-(trifluoromethyl)-phenyl)acetamide], for which the IC50 in test [1] (Homo sapiens, MDA-MB-231, 48 h) worked out at 74.8 ± 6.1 µM; in test [2] (Homo sapiens, A549, 48 h), 55.3 ± 4.2 µM; in test [3], 84.7 ± 6.9 µM.
Take `O=C(Nc1ccc([N+](=O)[O-])cc1)C(c1ccc(C(F)(F)F)cc1)N(C(=O)CNS(=O)(=O)c1ccccc1)c1ccccc1` (centres unmarked) [Compound 13, N-(4-Nitrophenyl)-2-(N-phenyl-2-(phenylsulfonamido)acetamido)-2-(4-(trifluoromethyl)-phenyl)acetamide]: the IC50 worked out at 73.9 ± 5.3 µM in test [1] (Homo sapiens, MDA-MB-231, 48 h); 64.1 ± 5.9 µM in test [2] (Homo sapiens, A549, 48 h); 98.5 ± 7.4 µM in test [3].
For `O=C(Nc1ccc([N+](=O)[O-])cc1)C(c1ccccc1)N(Cc1ccccc1)C(=O)/C=C/c1ccc(C(F)(F)F)cc1` (centres unmarked) [Compound 25, (E)-N-Benzyl-N-(2-((4-nitrophenyl)amino)-2-oxo-1-phenylethyl)-3-(4-(trifluoromethyl)-phenyl)acrylamide], in that order: 95.4 ± 8.1 µM, 90.2 ± 8.5 µM and 129 ± 8.7 µM.
For `O=C(Nc1ccc([N+](=O)[O-])cc1)C(c1ccc(C(F)(F)F)cc1)N(C(=O)c1ccc2ccccc2n1)c1ccccc1` (centres unmarked) [Compound 18, N-(2-((4-Nitrophenyl)amino)-2-oxo-1-(4-(trifluoromethyl)phenyl)ethyl)-N-phenylquinoline-2-carboxamide], in that order: 25.1 ± 1.9 µM, 20.1 ± 1.4 µM and 55.7 ± 3.5 µM.
Turning to `O=c1[nH]cc(F)c(=O)[nH]1` [Compound 5-FU, 5-fluorouracil, reference compound], the IC50 in test [1] (Homo sapiens, MDA-MB-231, 48 h) came out at 14.4 ± 0.9 µM; in test [2] (Homo sapiens, A549, 48 h) it was 11.3 ± 1.1 µM; in test [3], 7.2 ± 0.5 µM.
For `Cc1ccc(N(C(=O)CNC(=O)c2ccccc2)C(C(=O)Nc2ccc([N+](=O)[O-])cc2)c2ccc(C(F)(F)F)cc2)cc1` (centres unmarked) [Compound 12, N-(2-((2-((4-Nitrophenyl)amino)-2-oxo-1-(4-(trifluoromethyl)phenyl)ethyl)(p-tolyl)amino)-2-oxoethyl)benzamide], the IC50 came to 65.3 ± 4.7 µM in test [1] (Homo sapiens, MDA-MB-231, 48 h); 73.1 ± 6.6 µM in test [2] (Homo sapiens, A549, 48 h); 98.2 ± 8.1 µM in test [3].
Regarding `Cc1ccc(N(C(=O)c2ccccc2I)C(C(=O)Nc2ccc([N+](=O)[O-])cc2)c2ccc(C(F)(F)F)cc2)cc1` (centres unmarked) [Compound 8, 2-Iodo-N-(2-((4-nitrophenyl)amino)-2-oxo-1-(4-(trifluoromethyl)phenyl)ethyl)-N-(p-tolyl)-benzamide], the IC50 in test [1] (Homo sapiens, MDA-MB-231, 48 h) came to 27.1 ± 1.8 µM; in test [2] (Homo sapiens, A549, 48 h), 20.5 ± 1.1 µM; in test [3], 62.2 ± 4.2 µM.
For `O=C(Nc1ccc([N+](=O)[O-])cc1)C(c1ccccc1)N(C(=O)/C=C/c1ccc(C(F)(F)F)cc1)c1ccccc1` (centres unmarked) [Compound 23, (E)-N-(2-((4-Nitrophenyl)amino)-2-oxo-1-phenylethyl)-N-phenyl-3-(4-(trifluoromethyl)-phenyl)acrylamide], in that order: 30.3 ± 2.4 µM, 26.1 ± 2.1 µM and 30.9 ± 2.3 µM.
